From PubChem BioAssay (NCI)
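How tested: cells in 96-well plates exposed to compound for 48 hours at five concentrations. Here, GI50 denotes the concentration required for 50% inhibition of growth. The concentration for full growth arrest is given as TGI.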

What was measured:
Assay in all cases: DTP human tumour cell line panel, 48 h
[1] = test system: SR leukemia
[2] = test system: HL-60(TB) leukemia
[3] = test system: RXF 393 renal
[4] = test system: NCI-H23 lung
[5] = test system: TK-10 renal
[6] = test system: IGROV1 ovarian
[7] = test system: SF-295 CNS
[8] = test system: LOX IMVI melanoma
[9] = test system: HOP-62 NSCLC
[10] = test system: HCT-15 colon
[11] = test system: MDA-MB-231 breast
[12] = test system: NCI-H226 lung
[13] = test system: UO-31 renal
[14] = test system: SK-MEL-5 melanoma
[15] = test system: NCI-H522 lung
[16] = test system: HCT-116 colon
[17] = test system: COLO 205 colon
[18] = test system: OVCAR-3 ovarian
[19] = test system: 786-0 renal
[20] = test system: U251 CNS
[21] = test system: A549 NSCLC
[22] = test system: HS 578T breast
[23] = test system: M14 melanoma
[24] = test system: SNB-75 CNS
[25] = test system: RPMI-8226 leukemia
[26] = test system: UACC-257 melanoma
[27] = test system: SNB-19 CNS
[28] = test system: SN12C renal
[29] = test system: DU-145 prostate
[30] = test system: NCI/ADR-RES ovarian
[31] = test system: T-47D breast
[32] = test system: EKVX NSCLC
[33] = test system: CCRF-CEM leukemia
[34] = test system: SF-268 CNS
[35] = test system: SK-MEL-28 melanoma
[36] = test system: A498 renal
[37] = test system: SK-MEL-2 melanoma
[38] = test system: NCI-H460 lung
[39] = test system: OVCAR-5 ovarian
[40] = test system: SF-539 CNS
[41] = test system: UACC-62 melanoma
[42] = test system: K-562 leukemia
[43] = test system: PC-3 prostate
[44] = test system: ACHN renal
[45] = test system: MCF7 breast
[46] = test system: OVCAR-4 ovarian
[47] = test system: OVCAR-8 ovarian
[48] = test system: HOP-92 NSCLC
[49] = test system: MALME-3M melanoma

Compound `N=C(N)c1ccc(-c2ccc(-c3cc(Cl)cc(Cl)c3)s2)cc1` has a GI50 [1] of 0.284 µM, a TGI [1] of over 100 µM and a GI50 [2] of 1.07 µM. For the same compound, the TGI [2] was 2.8 µM.
Work on `O=C(CCCCC(=O)N/N=C\c1ccccc1Cl)N/N=C\c1ccccc1Cl` yielded a GI50 [3] of 11 µM, a TGI [3] of 32.7 µM and a GI50 [4] of 13.7 µM. The TGI [4] was over 100 µM, the GI50 [5] was 4.68 µM and the TGI [5] was 25.8 µM. The GI50 [6] was 8.79 µM, the TGI [6] was over 100 µM and the GI50 [7] was 0.539 µM. The TGI [7] was 44.4 µM, the GI50 [8] was over 100 µM and the TGI [8] was over 100 µM. For the same compound, the GI50 [9] was 3.22 µM, the TGI [9] was 24.6 µM and the GI50 [10] was 3.08 µM. It also gave a TGI [10] of over 100 µM, a GI50 [11] of 12.5 µM and a TGI [11] of 55.7 µM. It also gave a GI50 [12] of 15.4 µM, a TGI [12] of over 100 µM and a GI50 [13] of 3.32 µM. It also gave a TGI [13] of over 100 µM, a GI50 [14] of 3.94 µM and a TGI [14] of over 100 µM. The GI50 [15] was 2.13 µM, the TGI [15] was 41.1 µM and the GI50 [16] was 0.654 µM. It also gave a TGI [16] of over 100 µM, a GI50 [17] of 2.91 µM and a TGI [17] of over 100 µM. It also gave a GI50 [18] of 0.598 µM, a TGI [18] of 28.8 µM and a GI50 [1] of over 100 µM. It also gave a TGI [1] of over 100 µM, a GI50 [19] of 14.7 µM and a TGI [19] of 74.9 µM. It also gave a GI50 [20] of 0.757 µM, a TGI [20] of 21 µM and a GI50 [21] of 1.77 µM. It also gave a TGI [21] of over 100 µM, a GI50 [22] of 2.02 µM and a TGI [22] of 49 µM. For the same compound, the GI50 [23] was 2.06 µM, the TGI [23] was over 100 µM and the GI50 [24] was 12.7 µM. For the same compound, the TGI [24] was 32.9 µM, the GI50 [25] was 0.723 µM and the TGI [25] was over 100 µM. It also gave a GI50 [26] of 2.54 µM, a TGI [26] of over 100 µM and a GI50 [27] of 11.3 µM. The TGI [27] was 39.6 µM, the GI50 [28] was 7.44 µM and the TGI [28] was over 100 µM. The GI50 [29] was 8.33 µM, the TGI [29] was over 100 µM and the GI50 [30] was 1.2 µM. For the same compound, the TGI [30] was over 100 µM, the GI50 [31] was 3.36 µM and the TGI [31] was over 100 µM. The GI50 [32] was 1.73 µM, the TGI [32] was over 100 µM and the GI50 [33] was over 100 µM. For the same compound, the TGI [33] was over 100 µM, the GI50 [34] was 13.5 µM and the TGI [34] was 56.7 µM. For the same compound, the GI50 [35] was 61.3 µM, the TGI [35] was over 100 µM and the GI50 [36] was 3.13 µM. It also gave a TGI [36] of 38.1 µM, a GI50 [37] of 12.5 µM and a TGI [37] of 33.9 µM. For the same compound, the GI50 [38] was 3.15 µM, the TGI [38] was over 100 µM and the GI50 [39] was over 100 µM. The TGI [39] was over 100 µM, the GI50 [40] was 16.9 µM and the TGI [40] was over 100 µM. The GI50 [41] was 3.98 µM, the TGI [41] was over 100 µM and the GI50 [42] was 3.02 µM. It also gave a TGI [42] of over 100 µM, a GI50 [43] of 0.511 µM and a TGI [43] of over 100 µM. For the same compound, the GI50 [44] was 1.91 µM, the TGI [44] was over 100 µM and the GI50 [45] was 1.62 µM. It also gave a TGI [45] of over 100 µM, a GI50 [46] of 7.55 µM and a TGI [46] of over 100 µM. The GI50 [47] was 0.515 µM, the TGI [47] was 30.6 µM and the GI50 [48] was 1.95 µM. For the same compound, the TGI [48] was 19.2 µM, the GI50 [49] was 9.26 µM and the TGI [49] was over 100 µM.
